The values that follow come from ChEMBL document CHEMBL3272257, “Clonidine and related analogues. Quantitative correlations” (J Med Chem, 1976).

Data set [1] can be described thus: Retardation factor, deltaRm of the compound at pH 13 by TLC analysis. The data set is classed as physicochemical.
Data set [2] is described as follows: Dissociation constant, pKa of the compound in water-ethyl alcohol. The data set is classed as physicochemical.
A short description of data set [3]: Octan-1-ol-aqueous buffer partition coefficient, log P of the compound at 10 to 20 mg at pH 7.4 by UV-spectroscopic analysis. The data set is classed as physicochemical.
In data set [4] the test system is Rattus norvegicus. The experiment in a line: Peripheral adrenergic activity in iv dosed pithed rat assessed as change in mean blood pressure. The data set is classed as functional.
Data set [5] is filed under the species Rattus norvegicus. Description: Hypotensive activity in rat assessed as change in mean blood pressure relative to control. The data set is classed as functional. Set-up: concentration or dose not given beside the values.
Data set [6] deals with Rattus norvegicus. Description: Toxicity in iv dosed pithed rat. The data set is classed as organism-based. The conditions noted are these: in vivo.

Consider `Cc1cccc(C)c1N=C1NCCN1`, for which the deltaRm in data set [1] is recorded as 0.42. Moreover, in data set [2], the pKa (commonly the pH at which an ionisable group is half protonated) was found to be 10.5. In addition, the logD (in general, lipophilicity at a set pH, counting ionised and neutral species) in data set [3] was -1.65. In the data set with Rattus norvegicus [4], the pD2 came out at 7.74. The Activity in the data set listed under Rattus norvegicus [5] is under 10%.
The corresponding values for `c1ccc(NC2=NCCN2)cc1` are 0, 10.4, -1.8, 5.84 and under 10%.
Regarding `Clc1cc(Cl)c(N=C2NCCN2)c(Cl)c1`, the deltaRm in data set [1] was found to be 1. In data set [2], this compound yielded a pKa of 7.6. In the data set with Rattus norvegicus [4], the pD2 is listed as 7.13. The Activity in the data set listed under Rattus norvegicus [5] is listed as 15%.
`Cc1cc(C)c(N=C2NCCN2)c(C)c1`: in the data set with Rattus norvegicus [4], the pD2 worked out at 7.8.
In the case of `Brc1cccc(Br)c1N=C1NCCN1`, the deltaRm in data set [1] is listed as 0.61. The compound also showed a pKa in data set [2] of 7.95. The logD in data set [3] stood at 1.15. Besides, the pD2 in the data set on Rattus norvegicus [4] is on record as 7.28. Moreover, the Activity in the data set filed under Rattus norvegicus [5] is given as 15%.
In the case of `CCc1cccc(CC)c1NC1=NCCN1`, in data set [1], the deltaRm turned out to be 0.95. Further, the pKa in data set [2] turned out to be 10.6. The compound further gave a logD in data set [3] of -0.84. For the same compound, the pD2 with Rattus norvegicus [4] turned out to be 7.61. Besides, the Activity in the data set filed under Rattus norvegicus [5] is reported as over 10%.
Consider `Fc1cccc(F)c1N=C1NCCN1`, for which the deltaRm in data set [1] is listed as 0.24. Further, in data set [2], the pKa was found to be 8.4. In data set [3], this compound came in with a logD of 0.02. Moreover, the pD2 with Rattus norvegicus [4] was 7.23. Further, the Activity in the data set listed under Rattus norvegicus [5] is on record as under 10%.
In the case of `Clc1cc(Cl)c(N=C2NCCN2)cc1Cl`, in data set [1], the deltaRm amounted to 1.2. Moreover, the pKa in data set [2] came to 7.7. In data set [3], the logD was 1.63.
For the compound `CC(C)c1cccc(C(C)C)c1N=C1NCCN1`, the deltaRm in data set [1] was determined as 1.32. Also, the pKa in data set [2] was found to be 10.7. Moreover, the logD in data set [3] was -0.21. For the same compound, the pD2 in the data set on Rattus norvegicus [4] was 5.79. In the data set listed under Rattus norvegicus [5], the Activity is under 10%.
The corresponding values for `COc1cc(C)ccc1N=C1NCCN1` are -0.03, 10.6, -1.56, 6.58 and under 10%.
Taken in the same sequence, the figures for `Cc1ccc(Cl)cc1N=C1NCCN1` were 0.72, 9.5, -0.3, 7.64 and under 10%.
Taken in the same sequence, the figures for `COc1ccc(OC)c(N=C2NCCN2)c1` were -0.42, 10.2, -1.78, 6.98 and under 10%.
As for `Brc1ccc(N=C2NCCN2)cc1`, the deltaRm in data set [1] is on record as 0.58. The pKa in data set [2] is 9.65. The compound further had a logD in data set [3] of -0.5. Besides, the pD2 in the data set on Rattus norvegicus [4] was 6.09. For the same compound, the Activity in the data set listed under Rattus norvegicus [5] is recorded as under 10%.
The corresponding values for `COc1cc(OC)c(N=C2NCCN2)cc1Cl` are -0.07, 10.2, -1.37, 6.68 and under 10%.
In the case of `CCc1ccccc1N=C1NCCN1`, the pD2 with Rattus norvegicus [4] is given as 7.55.
As for `COc1cc(C)c(N=C2NCCN2)c(C)c1`, in the data set with Rattus norvegicus [6], the LD50 turned out to be 54 µM.
With `Cc1cc(O)cc(C)c1N=C1NCCN1`, the pD2 in the data set with Rattus norvegicus [4] is given as 7.51.
The compound `FC(F)(F)c1ccccc1N=C1NCCN1` had a pKa in data set [2] of 8.8. Also, the logD in data set [3] was found to be 0. Moreover, the pD2 with Rattus norvegicus [4] is on record as 6.13. Moreover, in the data set listed under Rattus norvegicus [5], the Activity is given as under 10%.
Compound `Oc1cc(Cl)c(N=C2NCCN2)c(Cl)c1` yielded a pKa in data set [2] of 7.95. The compound also came in with a logD in data set [3] of -0.4. In addition, the pD2 in the data set on Rattus norvegicus [4] amounted to 7.37. Further, in the data set filed under Rattus norvegicus [5], the Activity is reported as under 10%.
In data set [1], `Cc1cc(Cl)ccc1N=C1NCCN1` showed a deltaRm of 0.75. In data set [2], this compound showed a pKa of 9.75. Further, the logD in data set [3] is -0.58. Moreover, in the data set with Rattus norvegicus [4], the pD2 is 7.11. Besides, the Activity in the data set listed under Rattus norvegicus [5] was under 10%.
The corresponding values for `Cc1cccc(Cl)c1N=C1NCCN1` are 0.45, 9.2, -0.4, 7.74 and 15%.
Taken in the same sequence, the figures for `Cc1ccc(N=C2NCCN2)c(C)c1` were 0.43, 10.7, -1.46, 7.74 and over 10%.
The corresponding values for `Clc1ccc(Cl)c(N=C2NCCN2)c1` are 0.71, 8, 0.95, 7.65 and under 10%.
`Clc1ccc(N=C2NCCN2)c(Cl)c1` registered a deltaRm in data set [1] of 0.76. In addition, the pKa in data set [2] was 8.65. Moreover, the logD in data set [3] stood at 0.69. For the same compound, the pD2 with Rattus norvegicus [4] is listed as 6.71. The Activity in the data set listed under Rattus norvegicus [5] is 15%.
Taken in the same sequence, the figures for `Clc1cccc(Cl)c1NC1=NCCN1` [CLONIDINE] were 0.38, 8.05, 0.83, 7.66 and 15%.
Regarding `Cc1ccc(NC2=NCCN2)c(Cl)c1` [TOLONIDINE], in data set [2], the pKa worked out at 9.55. The same compound showed a logD in data set [3] of -0.28. Further, the pD2 in the data set with Rattus norvegicus [4] stood at 7.08. Further, in the data set listed under Rattus norvegicus [5], the Activity was found to be 15%.
